The target in assay [1] is T1, Replicase polyprotein 1ab (Severe acute respiratory syndrome-related coronavirus, UniProt P0C6X7). Briefly: Inhibition of 3C-like protease of SARS coronavirus assessed as concentration of FRET peptide for 60 mins.
Assay [2] addresses T1, Replicase polyprotein 1ab. As to the kind of experiment: Inhibition of 3C-like protease of SARS coronavirus assessed as concentration of FRET peptide for 60 mins by dixon plot.

For orientation: IC50 means the midpoint of a concentration-inhibition curve. Usually Ki stands for the dissociation constant of the complex between target and ligand, obtained from inhibition or displacement.

On to `CC1=C(O)C(=O)C=C2C1=CC=C1[C@@]2(C)CC[C@@]2(C)[C@@H]3C[C@](C)(C(=O)O)CC[C@]3(C)CC[C@]12C` [CELASTROL], for which the 50% inhibitory concentration (IC50) in assay [1] turned out to be 10.3 µM. Also, in assay [2], the Ki stood at 4.2 µM. On to `COc1cc(/C=C/C(=O)CC(=O)/C=C/c2ccc(O)c(OC)c2)ccc1O` [CURCUMIN], for which the IC50 in assay [1] came out at 23.5 µM.

With `Cc1c(O)c(O)cc2c1CC=C1[C@@]2(C)CC[C@@]2(C)[C@@H]3C[C@](C)(C(=O)O)CC[C@]3(C)CC[C@]12C` [DIHYDROCELASTROL], in assay [1], the IC50 was found to be 21.7 µM. On to `COC(=O)[C@]1(C)CC[C@]2(C)CC[C@]3(C)C4=CC=C5C(=CC(=O)C(O)=C5C)[C@]4(C)CC[C@@]3(C)[C@@H]2C1` [PRISTIMERIN], for which the IC50 in assay [1] is 5.5 µM. Further, the Ki in assay [2] was determined as 3.1 µM. For `CC1=C(O)C(=O)C=C2C1=CC=C1[C@@]2(C)CC[C@@]2(C)[C@@H]3C[C@@H](C)C(=O)C[C@]3(C)CC[C@]12C` [TINGENONE], in that order: 9.9 µM and 4 µM.

These data come from ChEMBL document CHEMBL1155394, “SARS-CoV 3CLpro inhibitory effects of quinone-methide triterpenes from Tripterygium regelii” (Bioorg Med Chem Lett, 2010).
